We go through two molecules from article PMC6877102, “A squalamine derivative, NV669, as a novel PTP1B inhibitor: in vitro and in vivo effects on pancreatic and hepatic tumor growth” (Oncotarget, 2019).

This assay concerns the target T1, Protein Tyrosine Phosphatase 1B (PTP1B) (Homo sapiens, UniProt P18031).
T1 construct: gene PTPN1; residues 1-322, C-terminal deletion
T1 sequence (P18031 1-322): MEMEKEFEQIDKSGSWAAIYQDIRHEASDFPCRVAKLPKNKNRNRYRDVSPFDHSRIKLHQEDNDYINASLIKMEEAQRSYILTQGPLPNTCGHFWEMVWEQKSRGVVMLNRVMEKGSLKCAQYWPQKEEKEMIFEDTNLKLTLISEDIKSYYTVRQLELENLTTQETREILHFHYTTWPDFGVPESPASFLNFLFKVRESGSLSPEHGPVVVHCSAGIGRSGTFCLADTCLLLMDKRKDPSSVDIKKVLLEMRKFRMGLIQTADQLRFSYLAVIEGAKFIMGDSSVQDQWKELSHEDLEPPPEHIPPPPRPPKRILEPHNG
In words: Malachite green phosphate release assay with IR5 phosphopeptide on recombinant human PTP1B. It counts as biochemical.

In the case of `CC(C)CCC[C@@H](C)[C@H]1CCC2C3C[C@@H](O)C4=C[C@@H](NCCCNCCCCNCCCN)CC[C@]4(C)C3CC[C@@]21C` (some centres unmarked) [NV669], the “Malachite green phosphate release assay with IR5 phosphopeptide on recombinant h” value is “we found that NV669 blocked significantly in vitro PTP1B activity in a dose- and time-dependent manner”.
With `CC(C)CCC[C@@H](C)[C@H]1CC[C@H]2[C@@H]3C[C@@H](NCCCNCCCCNCCCN)[C@H]4C[C@@H](O)CC[C@]4(C)[C@H]3CC[C@]12C` [claramine], the “Malachite green phosphate release assay with IR5 phosphopeptide on recombinant h” value is “Like claramine (a PTP1B inhibitor used here as positive control), we found that NV669 blocked significantly in vitro PTP1B activity”.
